The assay deals with Methicillin-resistant Staphylococcus aureus. As to conditions: 0.005% PHMB versus no PHMB. As to the method: This Example utilized 1.5-milliliter tubes containing a 1-milliliter blend of phosphate-buffered saline (pH 7.2) and 5% (w/v) bovine serum albumin soil. The tubes were placed in electric heat blocks set for 22° C., 30° C., 40° C. and 50° C., respectively. The tubes remained in the electric heat blocks for approximately 10 minutes.
After 10 minutes, 0.005% (by weight) active polyhexamehtylene biguanide (PHMB) (commercially available as Cosmocil® CQ from Arch Biocides, Inc., United Kingdom) was added to two tubes at each temperature level. Duplicate tubes without PHMB at each temperature were also made.
The tubes were then vortexed and Methicillin-resistant Staphylococcus aureus (approximately 1×10^5 colony forming units (CFU)) was then added to each tube. All of the tubes were then placed back into the heat blocks at their respective temperatures.
Following a 10-minute contact time, 0.1 milliliters of each sample was transferred to 0.9 milliliters letheen broth to neutralize the PHMB activity. The letheen samples were then plated in duplicate on Tryptic Soy agar plates using a WASP2 spiral plater (commercially available from Don Whitley Scientific, Ltd., Yorkshire, United Kingdom). The plates were inverted and incubated at 37±2° C. for 48 hours.
After 48 hours, the plates were evaluated using a total plate count to determine the biocidal efficacy of each sample.

Where two headings read alike, the source gives them in different places.

Turning to polyhexamethylene biguanide [PHMB], the “LOG10 Reduction” value by setting is: (22° C.) 2.1; (30° C.) 2.8; (40° C.) 3.5; (50° C.) greater than 3.5.

Values taken from patent publication US20070202185A1, “Microencapsulated Delivery Vehicles Having Fugitive Layers” (KIMBERLY-CLARK WORLDWIDE, INC., priority 2005, published 2007).
